Assay results published in US10030021B2, “Spirocyclic morphinans and use thereof” (Purdue Pharma L.P., priority 2014, dated 2018).

Target: T1, μ-opioid receptor (Homo sapiens, UniProt P35372)
T1 construct: purchased Perkin Elmer, Shelton, Conn
Assay: μ-opioid receptor [35S]GTPγS functional assay
Type: biochemical
Conditions: for Emax: maximal effect relative to DAMGO
Method: [^35S]GTPγS functional assays were conducted using freshly thawed μ-receptor membranes (Perkin Elmer, Shelton, Conn.). Assay reactions were prepared by sequentially adding the following reagents to binding buffer (100 mM NaCl, 10 mM MgCl2, 20 mM HEPES, pH 7.4) on ice (final concentrations indicated): membrane protein (0.026 mg/mL), saponin ([…]), GDP ([…]) and [^35S]GTPγS (0.20 nM; Perkin Elmer, Shelton, Conn.). The prepared membrane solution (190 μl/well) was transferred to 96-shallow well polypropylene plates containing 10 μl of 20× concentrated stock solutions of the agonist [D-Ala^2, N-methyl-Phe^4 Gly-ol^5]-enkephalin (DAMGO) prepared in dimethyl sulfoxide (DMSO). Plates were incubated for 30 min at about 25° C. with shaking. Reactions were terminated by rapid filtration onto 96-well Unifilter GF/B filter plates (Perkin Elmer, Shelton, Conn.) using a 96-well tissue harvester (Perkin Elmer, Shelton, Conn.) followed by three filtration washes with 200 μl of ice-cold wash buffer (10 mM NaH2PO4, 10 mM Na2HPO4, pH 7.4). Filter plates were subsequently dried at 50° C. for 2-3 hours. BetaScint scintillation cocktail (Perkin Elmer, Shelton, Conn.) was added (50 μl/well) and plates were counted using a Packard Top-Count for 1 min/well. Data were analyzed using the sigmoidal dose-response curve fitting functions in GraphPad PRISM v. 3.0, or an in-house function for non-linear, sigmoidal dose-response curve-fitting.
μ GTP EC50 is the concentration of a compound providing 50% of the maximal response for the compound at a μ-opioid receptor.
μ GTP Emax (%) is the maximal effect elicited by a compound relative to the effect elicited by DAMGO, a standard agonist. Generally, the μ GTP Emax (%) value measures the efficacy of a compound to treat or prevent pain or other Conditions.

T1 sequence (P35372 whole entry, species assumed): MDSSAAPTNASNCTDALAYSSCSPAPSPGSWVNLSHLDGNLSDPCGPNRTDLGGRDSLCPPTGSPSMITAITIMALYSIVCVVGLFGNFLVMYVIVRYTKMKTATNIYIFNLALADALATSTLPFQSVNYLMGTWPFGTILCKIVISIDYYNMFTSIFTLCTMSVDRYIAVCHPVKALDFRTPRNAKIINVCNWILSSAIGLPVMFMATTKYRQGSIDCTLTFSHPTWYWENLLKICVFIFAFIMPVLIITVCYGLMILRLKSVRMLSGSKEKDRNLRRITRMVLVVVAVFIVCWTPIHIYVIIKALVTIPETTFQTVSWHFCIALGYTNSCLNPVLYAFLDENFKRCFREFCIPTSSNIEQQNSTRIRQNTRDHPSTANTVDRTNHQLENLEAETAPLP

Work on `O=C1NC(=O)[C@@]2(CC[C@@]3(O)[C@H]4Cc5ccc(O)cc5[C@@]3(CCN4)C2)N1` [Compound 22, (4S,4b′R,8a′S,9′R)-3′,8a′-dihydroxy-8′,8a′,9′,10′-tetrahydro-5′H,7′H-spiro[imidazolidine-4,6′-[9,4b](epiminoethano)phenanthrene]-2,5-dione] yielded an EC50 of 2.85 ± 0.216 µM and an Emax of 71.7 ± 2.6%.
Molecule `CN1CC[C@]23C[C@]4(CC[C@H]2[C@H]1Cc1ccc(O)cc13)NC(=O)NC4=O` [Compound 19, (4S,4b′S,8a′R,9′R)-3′-hydroxy-11′-methyl-8′,8a′,9′,10′-tetrahydro-5′H,7′H-spiro[imidazolidine-4,6′-[9,4b](epiminoethano)phenanthrene]-2,5-dione] has an EC50 of 0.097 ± 0.0115 µM and an Emax of 54.6 ± 3.04%.
`CCN1C(=O)N(CC)[C@]2(CC[C@@]3(O)[C@H]4Cc5ccc(OC)cc5[C@@]3(CCN4)C2)C1=O` [Compound 18, (4S,4b′R,8a′S,9′R)-1,3-diethyl-8a′-hydroxy-3′-methoxy-8′,8a′,9′,10′-tetrahydro-5′H,7′H-spiro[imidazolidine-4,6′-[9,4b](epiminoethano)phenanthrene]-2,5-dione] was tested, and the EC50 was > 20 µM and the Emax was 35.7 ± 1.2%.
With `CN(C)CCN1CC[C@]23C[C@]4(CC[C@@]2(O)[C@H]1Cc1ccc(O)cc13)NC(=O)NC4=O` [Compound 29, (4S,4b′R,8a′S,9′R)-11′-(2-(dimethylamino)ethyl)-3′,8a′-dihydroxy-8′,8a′,9′,10′-tetrahydro-5′H,7′H-spiro[imidazolidine-4,6′-[9,4b](epiminoethano)phenanthrene]-2,5-dione] the EC50 was 3.92 ± 0.571 µM and the Emax was 23.4 ± 1.68%.
For `CCN1C(=O)N(CC)[C@]2(CC[C@@]3(O)[C@H]4Cc5ccc(OC)cc5[C@@]3(CCN4CCN(C)C)C2)C1=O` [Compound 8, (4S,4b′R,8a′S,9′R)-11′-(2-(dimethylamino)ethyl)-1,3-diethyl-8a′-hydroxy-3′-methoxy-8′,8a′,9′,10′-tetrahydro-5′H,7′H-spiro[imidazolidine-4,6′-[9,4b](epiminoethano)phenanthrene]-2,5-dione], the EC50 was > 20 µM and the Emax was 1%.
`CCN1C(=O)N(CC)[C@]2(CC[C@@]3(O)[C@H]4Cc5ccc(O)cc5[C@@]3(CCN4)C2)C1=O` [Compound 20, (4S,4b′R,8a′S,9′R)-1,3-diethyl-3′,8a′-dihydroxy-8′,8a′,9′,10′-tetrahydro-5′H,7′H-spiro[imidazolidine-4,6′-[9,4b](epiminoethano)phenanthrene]-2,5-dione] gave an EC50 of 1.88 ± 0.252 µM and an Emax of 28 ± 1.53%.
For `CCN1C(=O)N(CC)[C@]2(CC[C@@]3(O)[C@H]4Cc5ccc(O)cc5[C@@]3(CCN4CCCN(C)C)C2)C1=O` [Compound 27, (4S,4b′R,8a′S,9′R)-11′-(3-(dimethylamino)propyl)-1,3-diethyl-3′,8a′-dihydroxy-8′,8a′,9′,10′-tetrahydro-5′H,7′H-spiro[imidazolidine-4,6′-[9,4b](epiminoethano)phenanthrene]-2,5-dione], the EC50 was > 20 µM and the Emax was 1%.
`CCN1C(=O)N(CC)[C@]2(CC[C@@]3(O)[C@H]4Cc5ccc(C(N)=O)cc5[C@@]3(CCN4C)C2)C1=O` [Compound 33, (4S,4b′R,8a′S,9′R)-1,3-diethyl-8a′-hydroxy-11′-methyl-2,5-dioxo-8′,8a′,9′,10′-tetrahydro-5′H,7′H-spiro[imidazolidine-4,6′-[9,4b](epiminoethano)phenanthrene]-3′-carboxamide] showed an EC50 of 0.974 ± 0.117 µM and an Emax of 39.3 ± 1.78%.
With `COc1ccc2c(c1)[C@]13CCN[C@H](C2)[C@]1(O)CC[C@]1(C3)C(=O)N(CC2CC2)C(=O)N1CC1CC1` [Compound 17, (4S,4b′R,8a′S,9′R)-1,3-bis(cyclopropylmethyl)-8a′-hydroxy-3′-methoxy-8′,8a′,9′,10′-tetrahydro-5′H,7′H-spiro[imidazolidine-4,6′-[9,4b](epiminoethano)phenanthrene]-2,5-dione] the EC50 was > 20 µM and the Emax was 26 ± 5.51%.
With `CCN1C(=O)N(CC)[C@]2(CC[C@@]3(O)[C@H]4Cc5ccc(O)cc5[C@@]3(CCN4CCN(C)C)C2)C1=O` [Compound 26, (4S,4b′R,8a′S,9′R)-11′-(2-(dimethylamino)ethyl)-1,3-diethyl-3′,8a′-dihydroxy-8′,8a′,9′,10′-tetrahydro-5′H,7′H-spiro[imidazolidine-4,6′-[9,4b](epiminoethano)phenanthrene]-2,5-dione] the EC50 was > 20 µM and the Emax was 0.5%.
`CN(C)CCCN1CC[C@]23C[C@]4(CC[C@@]2(O)[C@H]1Cc1ccc(O)cc13)NC(=O)NC4=O` [Compound 30, (4S,4b′R,8a′S,9′R)-11′-(3-(dimethylamino)propyl)-3′,8a′-dihydroxy-8′,8a′,9′,10′-tetrahydro-5′H,7′H-spiro[imidazolidine-4,6′-[9,4b](epiminoethano)phenanthrene]-2,5-dione] was tested, and the EC50 was > 20 µM and the Emax was 1%.
`CN(C)CCCN1CC[C@]23C[C@@]4(CC[C@@]2(O)[C@H]1Cc1ccc(O)cc13)C(=O)N(CC1CC1)C(=O)N4CC1CC1` [Compound 28, (4S,4b′R,8a′S,9′R)-1,3-bis(cyclopropylmethyl)-11′-(3-(dimethylamino)propyl)-3′,8a′-dihydroxy-8′,8a′,9′,10′-tetrahydro-5′H,7′H-spiro[imidazolidine-4,6′-[9,4b](epiminoethano)-phenanthrene]-2,5-dione] was tested, and the EC50 was > 20 µM and the Emax was 1.36%.
With `COc1ccc2c(c1)[C@]13CCN(CCN(C)C)[C@H](C2)[C@]1(O)CC[C@@]1(C3)NC(=O)NC1=O` [Compound 3, (4S,4b′R,8a′S,9′R)-11′-(2-(dimethylamino)ethyl)-8a′-hydroxy-3′-methoxy-8′,8a′,9′,10′-tetrahydro-5′H,7′H-spiro[imidazolidine-4,6′-[9,4b](epiminoethano)phenanthrene]-2,5-dione] the EC50 was > 20 µM and the Emax was -0.8%.
For `COc1ccc2c(c1)[C@]13CCN(CCCN(C)C)[C@H](C2)[C@]1(O)CC[C@@]1(C3)NC(=O)NC1=O` [Compound 4, (4S,4b′R,8a′S,9′R)-11′-(3-(dimethylamino)propyl)-8a′-hydroxy-3′-methoxy-8′,8a′,9′,10′-tetrahydro-5′H,7′H-spiro[imidazolidine-4,6′-[9,4b](epiminoethano)phenanthrene]-2,5-dione], the EC50 was > 20 µM and the Emax was -1 ± 0.003%.
With `CCN1C(=O)N(CC)[C@]2(CC[C@@]3(O)[C@H]4Cc5ccc(OC)cc5[C@@]3(CCN4CCCN(C)C)C2)C1=O` [Compound 14, (4S,4b′R,8a′S,9′R)-11′-(3-(dimethylamino)propyl)-1,3-diethyl-8a′-hydroxy-3′-methoxy-8′,8a′,9′,10′-tetrahydro-5′H,7′H-spiro[imidazolidine-4,6′-[9,4b](epiminoethano)-phenanthrene]-2,5-dione] the EC50 was > 20 µM and the Emax was 1%.
In the case of `O=C1N(CC2CC2)C(=O)[C@@]2(CC[C@@]3(O)[C@H]4Cc5ccc(O)cc5[C@@]3(CCN4)C2)N1CC1CC1` [Compound 23, (4S,4b′R,8a′S,9′R)-1,3-bis(cyclopropylmethyl)-3′,8a′-dihydroxy-8′,8a′,9′,10′-tetrahydro-5′H,7′H-spiro[imidazolidine-4,6′-[9,4b](epiminoethano)phenanthrene]-2,5-dione], the EC50 is reported as 3.79 ± 0.287 µM and the Emax is reported as 15.7 ± 0.33%.
With `COc1ccc2c(c1)[C@]13CCN(CCCN(C)C)[C@H](C2)[C@]1(O)CC[C@]1(C3)C(=O)N(CC2CC2)C(=O)N1CC1CC1` [Compound 13, (4S,4b′R,8a′S,9′R)-1,3-bis(cyclopropylmethyl)-11′-(3-(dimethylamino)propyl)-8a′-hydroxy-3′-methoxy-8′,8a′,9′,10′-tetrahydro-5′H,7′H-spiro[imidazolidine-4,6′-[9,4b]-(epiminoethano)phenanthrene]-2,5-dione] the EC50 was > 20 µM and the Emax was 1%.
For `CCN1C(=O)N(CC)[C@]2(CC[C@@]3(O)[C@H]4Cc5ccc(O)cc5[C@@]3(CCN4CCc3ccccc3)C2)C1=O` [Compound 24, (4S,4b′R,8a′S,9′R)-1,3-diethyl-3′,8a′-dihydroxy-11′-phenethyl-8′,8a′,9′,10′-tetrahydro-5′H,7′H-spiro[imidazolidine-4,6′-[9,4b](epiminoethano)phenanthrene]-2,5-dione], the EC50 was 0.073 ± 0.0197 µM and the Emax was 65.3 ± 4.26%.
`COc1ccc2c(c1)[C@]13CCN(C)[C@H](C2)[C@@H]1CC[C@@]1(C3)NC(=O)NC1=O` [Compound 2, (4S,4b′S,8a′R,9′R)-3′-methoxy-11′-methyl-8′,8a′,9′,10′-tetrahydro-5′H,7′H-spiro[imidazolidine-4,6′-[9,4b](epiminoethano)phenanthrene]-2,5-dione] was tested, and the EC50 was 18 ± 1.1 µM and the Emax was 75.7 ± 0.88%.
Molecule `CCN1C(=O)N(CC)[C@]2(CC[C@@]3(O)[C@H]4Cc5ccc(/C(N)=N\O)cc5[C@@]3(CCN4C)C2)C1=O` [Compound 34, (4S,4b′R,8a′S,9′R,E)-1,3-diethyl-N′,8a′-dihydroxy-11′-methyl-2,5-dioxo-8′,8a′,9′,10′-tetrahydro-5′H,7′H-spiro[imidazolidine-4,6′-[9,4b](epiminoethano)phenanthrene]-3′-carboximidamide] has an EC50 of 17.2 ± 1.2 µM and an Emax of 29.7 ± 1.18%.
